From ChEMBL document CHEMBL3085634, “Identification of elaiophylin derivatives from the marine-derived actinomycete Streptomyces sp. 7-145 using PCR-based screening” (2013) come the findings set out here.

Holding throughout (type): functional
Assay [1] concerns Enterococcus faecalis. The assay is described as follows: Antibacterial activity against vancomycin-resistant Enterococcus faecalis ATCC 51299 assessed as growth inhibition after 18 hrs by agar dilution method. As to conditions: ATCC 51299, 18 h.
Assay [2] deals with Enterococcus faecium. Briefly: Antibacterial activity against vancomycin-sensitive Enterococcus faecium 09-10 assessed as growth inhibition after 18 hrs by agar dilution method. As to conditions: 09-10, 18 h.
Assay [3] concerns Staphylococcus epidermidis. The assay is described as follows: Antibacterial activity against methicillin-sensitive Staphylococcus epidermidis 09-9 assessed as growth inhibition after 18 hrs by agar dilution method. The following applies: 09-9, 18 h.
Another assay has as its system Micrococcus luteus. Briefly: Antibacterial activity against apramycin-resistant Micrococcus luteus ATCC 10240 assessed as growth inhibition after 18 hrs by agar dilution method. As to conditions: ATCC 10240, 18 h.
Assay [4] relates to Staphylococcus aureus. The assay is described as follows: Antibacterial activity against thiostrepton-resistant Staphylococcus aureus ATCC 6538P assessed as growth inhibition after 18 hrs by agar dilution method.
In assay [5] the test system is Staphylococcus aureus. The assay is described as follows: Antibacterial activity against methicillin-resistant Staphylococcus aureus 09-13 assessed as growth inhibition after 18 hrs by agar dilution method. As to conditions: 09-13, 18 h.
The test system of another assay is Morganella morganii. The assay is described as follows: Antibacterial activity against beta-lactamase producing Morganella morganii ATCC 25830 assessed as growth inhibition after 18 hrs by agar dilution method. As to conditions: ATCC 25830, 18 h.
For assay [6], the system named is Enterococcus faecium. The assay is described as follows: Antibacterial activity against vancomycin-resistant Enterococcus faecium ATCC 700221 assessed as growth inhibition after 18 hrs by agar dilution method. As to conditions: ATCC 700221, 18 h.
Assay [7] deals with Staphylococcus aureus. The assay is described as follows: Antibacterial activity against methicillin-resistant Staphylococcus aureus ATCC 33591 assessed as growth inhibition after 18 hrs by agar dilution method. The following applies: ATCC 33591, 18 h.
The test system of assay [8] is Staphylococcus aureus. Briefly: Antibacterial activity against methicillin-resistant Staphylococcus aureus R6101 assessed as growth inhibition after 18 hrs by agar dilution method. The following applies: R6101, 18 h.
The test system of assay [9] is Enterococcus faecalis. Briefly: Antibacterial activity against vancomycin-resistant Enterococcus faecalis R6512 assessed as growth inhibition after 18 hrs by agar dilution method. The following applies: R6512, 18 h.
The subject of assay [10] is Staphylococcus aureus. The assay is described as follows: Antibacterial activity against methicillin-sensitive Staphylococcus aureus 09-6 assessed as growth inhibition after 18 hrs by agar dilution method. As to conditions: 09-6, 18 h.
Assay [11] relates to Staphylococcus epidermidis. Briefly: Antibacterial activity against methicillin-sensitive Staphylococcus epidermidis ATCC 12228 assessed as growth inhibition after 18 hrs by agar dilution method. As to conditions: ATCC 12228, 18 h.
Assay [12] concerns Enterococcus faecalis. Briefly: Antibacterial activity against vancomycin-sensitive Enterococcus faecalis ATCC 29212 assessed as growth inhibition after 18 hrs by agar dilution method. As to conditions: ATCC 29212, 18 h.
The next assay has as its system Pseudomonas aeruginosa. Briefly: Antibacterial activity against beta-lactamase producing Pseudomonas aeruginosa ATCC 27853 assessed as growth inhibition after 18 hrs by agar dilution method. The following applies: ATCC 27853, 18 h.
The test system of assay [13] is Klebsiella pneumoniae. Briefly: Antibacterial activity against New Delhi metallo-beta-lactamase 1 producing Klebsiella pneumoniae ATCC BAA-2146 assessed as growth inhibition after 18 hrs by agar dilution method. The following applies: ATCC BAA-2146, 18 h.
The test system of assay [14] is Escherichia coli. The assay is described as follows: Antibacterial activity against beta-lactamase producing Escherichia coli 09-20 assessed as growth inhibition after 18 hrs by agar dilution method. The following applies: 09-20, 18 h.
For assay [15], the system named is Staphylococcus aureus. The assay is described as follows: Antibacterial activity against methicillin-sensitive Staphylococcus aureus ATCC 29213 assessed as growth inhibition after 18 hrs by agar dilution method. The following applies: ATCC 29213, 18 h.
For assay [16], the system named is Klebsiella pneumoniae. Briefly: Antibacterial activity against extended spectrum beta-lactamase producing Klebsiella pneumoniae ATCC 700603 assessed as growth inhibition after 18 hrs by agar dilution method. The following applies: ATCC 700603, 18 h.
Assay [17] concerns Escherichia coli. Briefly: Antibacterial activity against extended spectrum beta-lactamase producing Escherichia coli 09-1 assessed as growth inhibition after 18 hrs by agar dilution method. The following applies: 09-1, 18 h.
Assay [18] relates to Enterococcus faecalis. The assay is described as follows: Antibacterial activity against vancomycin-sensitive Enterococcus faecalis 09-8 assessed as growth inhibition after 18 hrs by agar dilution method. As to conditions: 09-8, 18 h.
For assay [19], the system named is Staphylococcus epidermidis. The assay is described as follows: Antibacterial activity against methicillin-resistant Staphylococcus epidermidis 09-3 assessed as growth inhibition after 18 hrs by agar dilution method. As to conditions: 09-3, 18 h.
Assay [20] concerns Enterococcus faecalis. Briefly: Antibacterial activity against vancomycin-resistant Enterococcus faecalis W4138 assessed as growth inhibition after 18 hrs by agar dilution method. As to conditions: W4138, 18 h.

Converted amounts (≈) assume the structure as drawn. Where only a bound is given, the exact number is not on record here.

In the case of `CC[C@@H]1[C@@H](C)O[C@@](OC)([C@@H](C)[C@H](O)[C@H](C)[C@H]2OC(=O)/C=C/C=C/[C@H](C)[C@@H]([C@@H](C)[C@@H](O)[C@H](C)[C@@]3(O)C[C@@H](O[C@H]4C[C@H](O)[C@H](O)[C@H](C)O4)[C@H](CC)[C@@H](C)O3)OC(=O)/C=C/C=C/[C@@H]2C)C[C@H]1O[C@H]1C[C@H](O)[C@H](O)[C@H](C)O1`, the MIC in the assay with Enterococcus faecalis [1] was found to be 1 µg/mL (≈ 0.962 µM); in the assay with Enterococcus faecium [2], 2 µg/mL (≈ 1.92 µM); in [3], 2 µg/mL (≈ 1.92 µM); in the assay with Micrococcus luteus, 2 µg/mL (≈ 1.92 µM); with Staphylococcus aureus [4] it was 2 µg/mL (≈ 1.92 µM); in the assay with Staphylococcus aureus [5], 2 µg/mL (≈ 1.92 µM). The MIC in the assay with Morganella morganii is over 256 µg/mL; in the assay on Enterococcus faecium [6], 2 µg/mL (≈ 1.92 µM); in the assay on Staphylococcus aureus [7], 2 µg/mL (≈ 1.92 µM); in the assay on Staphylococcus aureus [8] it was 1 µg/mL (≈ 0.962 µM); in the assay with Enterococcus faecalis [9], 1 µg/mL (≈ 0.962 µM); with Staphylococcus aureus [10] it was 2 µg/mL (≈ 1.92 µM). The MIC in [11] was 2 µg/mL (≈ 1.92 µM); with Enterococcus faecalis [12], 32 µg/mL (≈ 30.8 µM); with Pseudomonas aeruginosa it was over 256 µg/mL; with Klebsiella pneumoniae [13] it was over 256 µg/mL; in the assay with Escherichia coli [14], over 256 µg/mL; in the assay on Staphylococcus aureus [15], 2 µg/mL (≈ 1.92 µM). In addition, the MIC with Klebsiella pneumoniae [16] is over 256 µg/mL; in the assay on Escherichia coli [17] it was over 256 µg/mL; in the assay with Enterococcus faecalis [18], 2 µg/mL (≈ 1.92 µM); in [19] it was 2 µg/mL (≈ 1.92 µM); in the assay on Enterococcus faecalis [20], 2 µg/mL (≈ 1.92 µM).
As to `CN[C@H](CC(C)C)C(=O)N[C@H]1C(=O)N[C@@H](CC(N)=O)C(=O)N[C@H]2C(=O)N[C@H]3C(=O)N[C@H](C(=O)N[C@H](C(=O)O)c4cc(O)cc(O)c4-c4cc3ccc4O)[C@H](O)c3ccc(c(Cl)c3)Oc3cc2cc(c3O[C@@H]2O[C@H](CO)[C@@H](O)[C@H](O)[C@H]2O[C@H]2C[C@](C)(N)[C@H](O)[C@H](C)O2)Oc2ccc(cc2Cl)[C@H]1O` [VANCOMYCIN], the MIC with Enterococcus faecalis [1] was 4 µg/mL (≈ 2.76 µM); in assay [3], 0.5 µg/mL (≈ 0.345 µM); with Enterococcus faecalis [9], over 256 µg/mL; in assay [11], 0.5 µg/mL (≈ 0.345 µM); with Enterococcus faecalis [12] it was 1 µg/mL (≈ 0.69 µM); in the assay on Enterococcus faecalis [18] it was 1 µg/mL (≈ 0.69 µM). Also, the MIC in the assay on Enterococcus faecalis [20] was 4 µg/mL (≈ 2.76 µM).
